Measurements from patent EP2848122A1, “NEW PESTICIDE INCLUSION COMPLEXES, CO[…] COMPLEXES AND THE USE THEREOF AS PESTICIDES” (priority 2012, dated 2013).
≈ marks a conversion by molar mass, not a printed value.

Assay: water solubility by ultraviolet (UV) spectrophotometry
Format: physicochemical
Conditions: at 25 °C, free pesticide, read-out: intrinsic solubility
Description: Figure 1: Diagram of a solubility study using ultraviolet (UV) spectrophotometry of Bendiocarb as the concentration of cyclodextrin increases. Figure 2: Graph of differential scanning thermogravimetry (DST) of Bifenthrin alone, cyclodextrin (CD) alone, physical mixture of the two, and inclusion complex formed (encapsulated). Figure 3: Curves of differential thermal analysis (DTA) and thermal gravimetric analysis (TGA) of Tetramethrin alone, cyclodextrin (CD) alone, physical mixture of the two, and different inclusion complexes formed according to methods 1 or 2 and with the indicated stechiometries 1:1 or 2:1. Figure 4: Spectra of Nuclear Magnetic Resonance (1 H NMR) of Acetamiprid alone (a), cyclodextrin (CD) alone (b) and formed inclusion complex (c). Figure 5: Scanning electron photographs (SEM) of the structural change of Tebuconazole once the inclusion complex with cyclodextrin is formed. Figure 6: X-ray diffractograms (XRD) of Imidacloprid alone, cyclodextrin (CD) alone, physical mixture of both and inclusion complex formed (encapsulation). Figure 7: Diagram of the three-dimensional structures of the Acetamiprid-cyclodextrin complex by formation of a single crystal. Figure 8: Structural modelling by means of the program MACROMODEL of the Acetamiprid-cyclodextrin dimer. Figure 9: Performance of the Bendiocarb microencapsulation reaction (DSC). […]

CNC(=O)Oc1cccc2c1OC(C)(C)O2 [Bendiocarb] showed a solubility of 600 µM (≈ 134 µg/mL).
